From patent US7652044B2, “P-38 inhibitors” (Novartis A.G., priority 2003, dated 2010)

Target: T1, p38α kinase (Homo sapiens, UniProt Q16539)
T1 construct: purchased Upstate
Test: p38α assay (enzyme inhibition)
Type: biochemical
Method: Compound inhibitory activity was measured in a radioactive enzyme assay. The buffer composition was adopted from Lisnock et al (Biochemistry, 1998, vol. 37, pp 16573-16581). Peptide substrate was selected from Chen et al (Biochemistry, 2000, vol. 39, 2079-2087). The concentrations of p38α, [γ-^33P-ATP] and peptide were equal 1 nM, 85 uM and 250 uM, respectively. Incorporation of ^33P into peptide was measured using absorption on filtermats with subsequent wash with 100 mM phosphoric acid followed by ethanol.
cDNAs of human p38α and β were cloned by PCR. The α and β cDNAs were subcloned into DEST2 plasmid (Gateway, InVitrogen). His6-p38 fusion protein was expressed in E. coli and purified from bacterial lysates by affinity chromatography using Ni^+2-NTA-agarose. His6-p38 protein was activated by incubating with constitutively active MKK6. Active p38 was separated from MKK6 by affinity chromatography. Constitutively active MKK6 was generated in a manner similar to Raingeaud et al. (Mol. Cell. Biol., 1247-1255 (1996)).
The p38α assay employed is based on measurement of ADP released in the reaction of interest through NADH oxidation obtained by coupling with pyruvate kinase and lactate dehydrogenase reactions. The assays were performed in 384-well UV-plates. The final volume was 25 uL prepared from the addition of 2.5 uL compound dissolved in 10% DMSO, 17.5 uL of assay buffer and 5 uL of ATP. Assay buffer contains the following reagents to give final concentration in the assay: 25 mM HEPES, 20 mM 2-glycerophosphate, pH 7.6, 10 mM MgCl2, 0.1 mM sodium orthovanadate, 0.5 mM phosphoenolpyruvate, 0.12 mM NADH, 3.1 mg/ml LDH, 6.67 mg/ml pyruvate kinase, 0.25 mM peptide substrate, 2 mM DTT, 0.005% Tween 80 and 20 nM p38α kinase from Upstate. Test compounds are preincubated with p38α kinase for 60 min and the reaction started by addition of ATP to 0.15 mM final concentration. Reaction rates were measured at 340 nm using SpectraMax plate-reading spectrophotometer for 10 min at 37° C. Inhibition data were analyzed by non-linear least-squares regression using SigmaPlot.

T1 sequence (Q16539 whole entry): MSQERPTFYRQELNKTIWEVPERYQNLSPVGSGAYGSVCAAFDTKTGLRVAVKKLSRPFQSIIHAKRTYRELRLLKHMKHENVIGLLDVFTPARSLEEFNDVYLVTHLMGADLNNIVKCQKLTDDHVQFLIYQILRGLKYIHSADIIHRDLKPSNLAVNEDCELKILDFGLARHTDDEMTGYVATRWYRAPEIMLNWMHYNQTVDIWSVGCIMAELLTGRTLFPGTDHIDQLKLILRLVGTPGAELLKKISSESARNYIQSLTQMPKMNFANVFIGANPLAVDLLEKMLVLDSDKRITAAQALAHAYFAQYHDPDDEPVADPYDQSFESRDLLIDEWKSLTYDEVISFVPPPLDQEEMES

SMILES | IC50 [nM]
CONC(=O)c1ccc(C)c(Nc2noc(-c3ccccc3)n2)c1 [Compound 2, N-methoxy-4-methyl-3-(5-phenyl-[1,2,4]oxadiazol-3-ylamino)-benzamide] | < 50
CONC(=O)c1ccc(C)c(Nc2nnc(-c3ccccc3)[nH]2)c1 [Compound 1, N-methoxy-4-methyl-3-(5-phenyl-4H-[1,2,4]triazol-3-ylamino)-benzamide] | < 50
Cc1ccc(C(=O)NC2CC2)cc1Nc1nc(-c2ccccc2)cs1 [Compound 3, N-Cyclopropyl-4-methyl-3-(4-phenyl-thiazol-2-ylamino)-benzamide] | > 100
Cc1ccc(C(=O)NC2CC2)cc1Nc1ncc(C(=O)NCc2ccccc2)s1 [Compound 26, 2-(5-Cyclopropylcarbamoyl-2-methyl-phenylamino)-thiazole-5-carboxylic acid benzylamide] | < 50

Second part, the compound after the results:

IC50 [nM] | SMILES
> 100 | Cc1ccc(C(=O)NC2CC2)cc1Nc1nc(-c2ccc3[nH]ccc3c2)c(C(=O)NCc2ccccc2)s1 [Compound 28-40, 2-(5-Cyclopropylcar-bamoyl-2-methyl-phenylamino)-4-(1H-indol-5-yl)-thiazole-5-carboxylic acid benzylamide]
50 to 100 | Cc1cccc(-c2nc(Nc3cc(C(=O)NC4CC4)ccc3C)sc2C(=O)NCc2ccccc2)c1 [Compound 28-6, 2-(5-Cyclopropylcar-bamoyl-2-methyl-phenylamino)-4-m-tolyl-thiazole-5-carboxylic acid benzylamide]
50 to 100 | Cc1ccc(C(=O)NC2CC2)cc1Nc1nc(-c2cccc(C#N)c2)c(C(=O)NCc2ccccc2)s1 [Compound 28-9, 4-(3-Cyano-phenyl)-2-(5-cyclopropyl-carbamoyl-2-methyl-phenylamino)thia-zole-5-carboxylic acid benzylamide]
< 50 | Cc1ccc(C(=O)NC2CC2)cc1Nc1nc(-c2cccc(CN)c2)c(C(=O)NCc2ccccc2)s1 [Compound 28-24, 4-(3-Aminomethyl-phenyl)-2-(5-cyclo-propylcarbamoyl-2-methylphenylamino) thiazole-5-carboxylic acid benzylamide]
